Laboratory results published in ChEMBL document CHEMBL2417365, “Design, synthesis, and in vitro hMAO-B inhibitory evaluation of some 1-methyl-3,5-diphenyl-4,5-dihydro-1H-pyrazoles” (Bioorg Med Chem Lett, 2013).

Columns and labels:
[1] = organism: Homo sapiens; assay: Selectivity index, ratio of IC50 for human MAO-A to IC50 for human MAO-B
[2] = target: T1, Amine oxidase [flavin-containing] B (Homo sapiens, UniProt P27338); assay: biochemical; format: cell-based, BTI-TN-5B1-4
T1 sequence (P27338 whole entry): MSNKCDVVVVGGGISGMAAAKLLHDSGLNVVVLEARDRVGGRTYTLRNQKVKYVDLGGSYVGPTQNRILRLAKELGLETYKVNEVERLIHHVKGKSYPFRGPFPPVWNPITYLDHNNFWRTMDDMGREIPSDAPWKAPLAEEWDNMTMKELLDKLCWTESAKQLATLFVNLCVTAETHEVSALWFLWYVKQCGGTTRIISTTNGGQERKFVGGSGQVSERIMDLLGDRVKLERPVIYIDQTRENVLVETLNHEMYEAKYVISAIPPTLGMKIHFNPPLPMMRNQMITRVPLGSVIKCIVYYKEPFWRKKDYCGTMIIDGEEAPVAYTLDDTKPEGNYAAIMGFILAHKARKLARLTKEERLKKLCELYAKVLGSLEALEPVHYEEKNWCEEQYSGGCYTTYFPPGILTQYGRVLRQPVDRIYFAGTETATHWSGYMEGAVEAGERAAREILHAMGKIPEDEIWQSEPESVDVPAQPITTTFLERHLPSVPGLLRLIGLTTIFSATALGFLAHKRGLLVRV
Description: Inhibition of human recombinant microsomal MAO-B expressed in baculovirus-infected insect BTI-TN-5B1-4 cells assessed as p-tyramine conversion to H2O2 by fluorescence assay

[3] = target: T2, Amine oxidase [flavin-containing] A (Homo sapiens, UniProt P21397); assay: Inhibition of human recombinant microsomal MAO-A expressed in baculovirus-infected insect BTI-TN-5B1-4 cells assessed as p-tyramine conversion to H2O2 by fluorescence assay
T2 sequence (P21397 whole entry): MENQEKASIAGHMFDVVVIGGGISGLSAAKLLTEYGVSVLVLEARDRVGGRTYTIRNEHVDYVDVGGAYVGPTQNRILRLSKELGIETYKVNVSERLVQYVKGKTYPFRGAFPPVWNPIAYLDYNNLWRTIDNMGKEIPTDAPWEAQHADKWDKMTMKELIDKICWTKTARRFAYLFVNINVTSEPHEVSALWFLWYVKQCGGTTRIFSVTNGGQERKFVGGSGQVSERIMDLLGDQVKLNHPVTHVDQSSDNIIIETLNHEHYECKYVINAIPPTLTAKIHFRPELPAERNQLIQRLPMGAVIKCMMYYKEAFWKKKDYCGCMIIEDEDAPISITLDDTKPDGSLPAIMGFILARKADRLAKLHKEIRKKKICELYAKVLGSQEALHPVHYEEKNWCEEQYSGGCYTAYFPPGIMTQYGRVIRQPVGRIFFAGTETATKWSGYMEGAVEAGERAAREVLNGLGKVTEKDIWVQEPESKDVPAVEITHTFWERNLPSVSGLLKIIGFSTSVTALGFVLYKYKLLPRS

[4] = target: T2, Amine oxidase [flavin-containing] A; assay: Inhibition of human recombinant microsomal MAO-A expressed in baculovirus-infected insect BTI-TN-5B1-4 cells at 100 uM assessed as p-tyramine conversion to H2O2 by fluorescence assay; conditions: for inhibition (INH): human, bti-tn-5b1-4, 100 µM; for inhibition at 100 µM: BTI-TN-5B1-4, human
[5] = target: T1, Amine oxidase [flavin-containing] B; assay: Inhibition of human recombinant microsomal MAO-B expressed in baculovirus-infected insect BTI-TN-5B1-4 cells at 100 uM assessed as p-tyramine conversion to H2O2 by fluorescence assay; conditions: for inhibition (INH): human, bti-tn-5b1-4, 100 µM; for inhibition at 100 µM: BTI-TN-5B1-4, human
[6] = target: T1, Amine oxidase [flavin-containing] B; assay: Ratio of selegiline IC50 to compound IC50 for human MAO-B
[7] = target: T1, Amine oxidase [flavin-containing] B; assay: Ratio of clorgyline IC50 to compound IC50 for human MAO-B
[8] = target: T2, Amine oxidase [flavin-containing] A; assay: Ratio of clorgyline IC50 to compound IC50 for human MAO-A
[9] = target: Amine oxidase [flavin-containing] B (Homo sapiens) (UniProt P27338); assay: Ratio of selegiline IC50 to compound IC50 for human MAO-B
[10] = target: Amine oxidase [flavin-containing] B (Homo sapiens) (UniProt P27338); assay: Ratio of iproniazid IC50 to compound IC50 for human MAO-B
[11] = target: Amine oxidase [flavin-containing] B (Homo sapiens) (UniProt P27338); assay: Ratio of moclobemide IC50 to compound IC50 for human MAO-B

CN1N=C(c2ccc(O)cc2O)CC1c1ccccc1Cl (stereo unspecified) gave a Ratio IC50 [1] of 3.7, an IC50 [2] of 300 nM and an IC50 [3] of 1100 nM.

With CN1N=C(c2ccccc2)CC1c1ccc(Cl)cc1 (stereo unspecified) the Ratio IC50 [1] was > 25, the IC50 [2] was 3950 nM and the “inhibition (INH)” value [4] was “Not Active”.

For CN1N=C(c2ccccc2)CC1c1ccccc1Cl (stereo unspecified), the Ratio IC50 [1] was > 27, the IC50 [2] was 3650 nM and the “inhibition (INH)” value [4] was “Not Active”.

Cc1cccc(C2CC(c3ccccc3)=NN2C)c1 (stereo unspecified) was tested, and the Ratio IC50 [1] was > 909, the IC50 [2] was 110 nM and the inhibition at 100 µM [4] was 40%.

For CN1N=C(c2ccc(O)cc2)CC1c1ccccc1F (stereo unspecified), the Ratio IC50 [1] was > 33, the IC50 [2] was 3040 nM and the inhibition at 100 µM [4] was 40%.

CN1N=C(c2ccc(O)cc2)CC1c1ccc(F)cc1 (stereo unspecified) was tested, and the Ratio IC50 [1] was > 27, the IC50 [2] was 3650 nM and the inhibition at 100 µM [4] was 40%.

CN1N=C(c2ccccc2)CC1c1ccccc1F (stereo unspecified) showed a Ratio IC50 [1] of 10, an IC50 [2] of 280 nM and an IC50 [3] of 2840 nM.

Compound CN1N=C(c2ccc(O)cc2O)CC1c1ccc(F)cc1 (stereo unspecified) has an IC50 [3] of 810 nM.

CN1N=C(c2ccc(O)cc2)CC1c1cccc(Cl)c1 (stereo unspecified) showed a Ratio IC50 [1] of 9, an IC50 [2] of 2070 nM and an IC50 [3] of 18700 nM.

For CN1N=C(c2ccccc2)CC1c1cccc(Cl)c1 (stereo unspecified), the Ratio IC50 [1] was 61, the IC50 [2] was 840 nM and the IC50 [3] was 51000 nM.

CN1N=C(c2ccccc2)CC1c1ccc(F)cc1 (stereo unspecified) showed a Ratio IC50 [1] of 21, an IC50 [2] of 140 nM and an IC50 [3] of 3000 nM.

O=C(NCCN1CCOCC1)c1ccc(Cl)cc1 [MOCLOBEMIDE] was tested, and the “inhibition (INH)” value [5] was “Not Active”.

Compound CN1N=C(c2ccccc2)CC1c1cccc(F)c1 (stereo unspecified) has a Ratio IC50 [1] of 30, an IC50 [2] of 60 nM and an IC50 [3] of 1820 nM.

In the case of Cc1ccccc1C1CC(c2ccc(O)cc2)=NN1C (stereo unspecified), the Ratio IC50 [1] is reported as 1.1, the IC50 [2] is reported as 20100 nM and the IC50 [3] is reported as 21900 nM.

For Cc1ccc(C2CC(c3ccc(O)cc3O)=NN2C)cc1 (stereo unspecified), the inhibition at 100 µM [5] was 40% and the inhibition at 100 µM [4] was 40%.

Cc1ccc(C2CC(c3ccccc3)=NN2C)cc1 (stereo unspecified) was tested, and the Ratio IC50 [6] was ≥ 2, the Ratio IC50 [7] was ≥ 2 and the Ratio IC50 [1] was 145. The “Ratio IC50” value [8] was “<= 2”, the IC50 [2] was 9.6 nM and the IC50 [3] was 1390 nM. The “Ratio IC50” value [9] was “<= 2”, the “Ratio IC50” value [10] was “<= 2” and the “Ratio IC50” value [11] was “<= 2”.

With CN1N=C(c2ccc(O)cc2)CC1c1ccccc1 (stereo unspecified) the Ratio IC50 [1] was > 3.7, the IC50 [2] was 26800 nM and the inhibition at 100 µM [4] was 40%.

Work on Cc1cccc(C2CC(c3ccc(O)cc3O)=NN2C)c1 (stereo unspecified) yielded an inhibition at 100 µM [5] of 40% and an inhibition at 100 µM [4] of 40%.

Work on Cc1ccccc1C1CC(c2ccccc2)=NN1C (stereo unspecified) yielded a Ratio IC50 [1] of 30, an IC50 [2] of 110 nM and an IC50 [3] of 3260 nM.

Cc1cccc(C2CC(c3ccc(O)cc3)=NN2C)c1 (stereo unspecified) gave a Ratio IC50 [1] of 2.8, an IC50 [2] of 5780 nM and an IC50 [3] of 16300 nM.

For CN1N=C(c2ccc(O)cc2O)CC1c1cccc(Cl)c1 (stereo unspecified), the Ratio IC50 [1] was 2.3, the IC50 [2] was 180 nM and the IC50 [3] was 420 nM.

CN1N=C(c2ccc(O)cc2O)CC1c1ccccc1 (stereo unspecified) was tested, and the inhibition at 100 µM [5] was 40% and the inhibition at 100 µM [4] was 40%.

With CN1N=C(c2ccc(O)cc2)CC1c1cccc(F)c1 (stereo unspecified) the Ratio IC50 [1] was > 31, the IC50 [2] was 3170 nM and the inhibition at 100 µM [4] was 40%.

With CN1N=C(c2ccc(O)cc2O)CC1c1cccc(F)c1 (stereo unspecified) the “inhibition (INH)” value [5] was “Not Active” and the “inhibition (INH)” value [4] was “Not Active”.

For CN1N=C(c2ccc(O)cc2)CC1c1ccccc1Cl (stereo unspecified), the Ratio IC50 [1] was 1.1, the IC50 [2] was 10400 nM and the IC50 [3] was 11800 nM.

CN1N=C(c2ccc(O)cc2)CC1c1ccc(Cl)cc1 (stereo unspecified) gave a Ratio IC50 [1] of 4.8, an IC50 [2] of 2640 nM and an IC50 [3] of 12700 nM.

In the case of Cc1ccc(C2CC(c3ccc(O)cc3)=NN2C)cc1 (stereo unspecified), the Ratio IC50 [1] is reported as 4.8, the IC50 [2] is reported as 1910 nM and the IC50 [3] is reported as 9130 nM.

Compound CN1N=C(c2ccc(O)cc2O)CC1c1ccc(Cl)cc1 (stereo unspecified) has a Ratio IC50 [1] of 4.1, an IC50 [2] of 340 nM and an IC50 [3] of 1390 nM.

Work on Cc1ccccc1C1CC(c2ccc(O)cc2O)=NN1C (stereo unspecified) yielded a Ratio IC50 [1] of 1.9, an IC50 [2] of 2040 nM and an IC50 [3] of 3980 nM.

Work on CN1N=C(c2ccccc2)CC1c1ccccc1 (stereo unspecified) yielded a Ratio IC50 [1] of 14, an IC50 [2] of 120 nM and an IC50 [3] of 1680 nM.

In the case of CN1N=C(c2ccc(O)cc2O)CC1c1ccccc1F (stereo unspecified), the Ratio IC50 [1] is reported as > 26, the IC50 [2] is reported as 3870 nM and the inhibition at 100 µM [4] is reported as 40%.
